Here are results for one substance from patent EP4617278A1, “NUCLEOTIDE ANALOG, AND COMPOSITION AND USE THEREOF” (priority 2022, dated 2024).

The experiment concerns SARS-CoV-2 replicon. It is filed as cell-based. As to conditions: read-out: SARS-CoV-2 Replicon (Huh-7cell) EC50. In general terms: Replicon systems follow genome replication, usually without infectious particles.

In general, EC50 refers to the concentration that produces a half-maximal response.

Take “(2R,3R,4R,5R)-2-(4-aminopyrrolo[2,1-f][1,2,4]triazin-7-yl)-5-((((bis(((isopropoxycarbonyl)oxy)methoxy))phosphoryl)oxy)methyl)-2-cyanotetrahydrofuran-3,4-diyldiisopropyl bis(carbonate) [Compound 28]”: the concentration for a half-maximal effect (EC50) lay within 10 to 50 nM.
